Measured values from PubChem BioAssay (NCI).
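Following 48 hours of exposure in 96-well plates, responses at five concentrations were used to interpolate endpoints linearly. At the TGI there is no net growth.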 Where a SMILES comes first, the peptide text is derived from it. [ ]: non-standard residue; d: D form. The star is where a group is joined. NMeF = CN[CH](Cc1ccccc1)C(=O)O; NMeV = CN[CH](C(=O)O)C(C)C; Boc = CC(C)(C)OC(=O)*; OBn = c1ccc(CO*)cc1

Tests used:
Experiment in all cases: NCI-60 cell line screen, 48 h
[1] = tested on: SF-295 CNS
[2] = tested on: UO-31 renal
[3] = tested on: ACHN renal
[4] = tested on: 786-0 renal
[5] = tested on: SF-539 CNS
[6] = tested on: NCI-H460 lung
[7] = tested on: NCI-H23 lung
[8] = tested on: DMS 114 small cell lung
[9] = tested on: MOLT-4 leukemia
[10] = tested on: COLO 205 colon
[11] = tested on: SK-MEL-5 melanoma
[12] = tested on: LXFL 529 NSCLC
[13] = tested on: HCT-116 colon
[14] = tested on: KM12 colon
[15] = tested on: DMS 273 small cell lung
[16] = tested on: SN12C renal
[17] = tested on: OVCAR-3 ovarian
[18] = tested on: KM20L2 colon
[19] = tested on: HOP-62 NSCLC
[20] = tested on: HL-60(TB) leukemia
[21] = tested on: CCRF-CEM leukemia
[22] = tested on: RPMI-8226 leukemia
[23] = tested on: M19-MEL melanoma
[24] = tested on: UACC-62 melanoma
[25] = tested on: SR leukemia
[26] = tested on: K-562 leukemia
[27] = tested on: SF-268 CNS
[28] = tested on: MALME-3M melanoma
[29] = tested on: SNB-19 CNS
[30] = tested on: OVCAR-8 ovarian
[31] = tested on: A549 NSCLC
[32] = tested on: HCT-15 colon
[33] = tested on: TK-10 renal
[34] = tested on: NCI-H522 lung
[35] = tested on: XF 498 CNS
[36] = tested on: NCI-H226 lung
[37] = tested on: EKVX NSCLC
[38] = tested on: U251 CNS
[39] = tested on: SW-620 colon
[40] = tested on: UACC-257 melanoma
[41] = tested on: IGROV1 ovarian
[42] = tested on: LOX IMVI melanoma
[43] = tested on: HT29 colon
[44] = tested on: HCC-2998 colon
[45] = tested on: M14 melanoma
[46] = tested on: SK-OV-3 ovarian
[47] = tested on: SNB-75 CNS
[48] = tested on: CAKI-1 renal
[49] = tested on: DLD-1 colon
[50] = tested on: A498 renal
[51] = tested on: SNB-78 CNS
[52] = tested on: HOP-92 NSCLC
[53] = tested on: SK-MEL-28 melanoma
[54] = tested on: OVCAR-5 ovarian
[55] = tested on: RXF-631 renal
[56] = tested on: SK-MEL-2 melanoma
[57] = tested on: HOP-18 NSCLC

`CC(C)C(NC(=O)OC(C)(C)C)C(=O)N(C)C(Cc1ccccc1)C(=O)N(C)C(C(=O)N(C)C(C(=O)OCc1ccccc1)C(C)C)C(C)C` (stereo unspecified) (Boc-V[NMeF][NMeV][NMeV]-OBn; configuration not given here) was tested, and the TGI [1] was over 100 µM, the TGI [2] was over 100 µM and the TGI [3] was over 100 µM. For the same molecule, the TGI [4] was over 100 µM, the TGI [5] was over 100 µM and the TGI [6] was over 100 µM. For the same molecule, the TGI [7] was over 100 µM, the TGI [8] was over 100 µM and the TGI [9] was over 100 µM. For the same molecule, the TGI [10] was over 100 µM, the TGI [11] was over 100 µM and the TGI [12] was over 100 µM. For the same molecule, the TGI [13] was over 100 µM, the TGI [14] was over 100 µM and the TGI [15] was over 100 µM. For the same molecule, the TGI [16] was over 100 µM, the TGI [17] was over 100 µM and the TGI [18] was over 100 µM. The TGI [19] was over 100 µM, the TGI [20] was over 100 µM and the TGI [21] was over 100 µM. For the same molecule, the TGI [22] was over 100 µM, the TGI [23] was over 100 µM and the TGI [24] was over 100 µM. For the same molecule, the TGI [25] was over 100 µM, the TGI [26] was over 100 µM and the TGI [27] was over 100 µM. For the same molecule, the TGI [28] was over 100 µM, the TGI [29] was over 100 µM and the TGI [30] was over 100 µM. The TGI [31] was over 100 µM, the TGI [32] was over 100 µM and the TGI [33] was over 100 µM. For the same molecule, the TGI [34] was over 100 µM, the TGI [35] was 82.4 µM and the TGI [36] was over 100 µM. For the same molecule, the TGI [37] was over 100 µM, the TGI [38] was over 100 µM and the TGI [39] was over 100 µM. For the same molecule, the TGI [40] was over 100 µM, the TGI [41] was over 100 µM and the TGI [42] was over 100 µM. The TGI [43] was over 100 µM, the TGI [44] was over 100 µM and the TGI [45] was over 100 µM.

Work on `COC1=NN2C(OC)(c3ccccc3)c3c(-c4ccccc4)sc(-c4ccccc4)c3C2(c2ccccc2)S1` (stereo unspecified) yielded a TGI [1] of over 100 µM, a TGI [2] of over 100 µM and a TGI [3] of over 100 µM. The TGI [46] was over 100 µM, the TGI [4] was over 100 µM and the TGI [5] was over 100 µM. It also gave a TGI [6] of over 100 µM, a TGI [7] of over 100 µM and a TGI [9] of over 100 µM. The TGI [10] was over 100 µM, the TGI [12] was over 100 µM and the TGI [13] was over 100 µM. For the same molecule, the TGI [14] was over 100 µM, the TGI [47] was over 100 µM and the TGI [15] was over 100 µM. The TGI [16] was over 100 µM, the TGI [17] was over 10 µM and the TGI [48] was over 100 µM. The TGI [19] was over 10 µM, the TGI [20] was over 100 µM and the TGI [21] was over 100 µM. For the same molecule, the TGI [24] was over 100 µM, the TGI [49] was over 100 µM and the TGI [25] was over 100 µM. It also gave a TGI [50] of over 100 µM, a TGI [26] of over 100 µM and a TGI [27] of over 100 µM. It also gave a TGI [51] of over 100 µM, a TGI [28] of over 100 µM and a TGI [29] of over 100 µM. For the same molecule, the TGI [30] was over 100 µM, the TGI [31] was over 100 µM and the TGI [32] was over 100 µM. It also gave a TGI [33] of over 100 µM, a TGI [52] of over 100 µM and a TGI [34] of over 100 µM. For the same molecule, the TGI [35] was over 100 µM, the TGI [53] was over 100 µM and the TGI [38] was over 100 µM. It also gave a TGI [54] of over 100 µM, a TGI [39] of over 100 µM and a TGI [40] of over 100 µM. It also gave a TGI [41] of over 100 µM, a TGI [55] of over 100 µM and a TGI [42] of over 100 µM. It also gave a TGI [43] of over 100 µM, a TGI [56] of over 100 µM and a TGI [44] of over 100 µM. For the same molecule, the TGI [45] was over 10 µM.

For `COc1cc2c(c3oc(-c4ccc5c(c4)OCO5)c(O)c(=O)c13)CCC(C)(C)O2`, the TGI [1] was over 100 µM, the TGI [2] was over 100 µM and the TGI [46] was over 100 µM. It also gave a TGI [4] of over 100 µM, a TGI [5] of over 100 µM and a TGI [7] of over 100 µM. For the same molecule, the TGI [8] was over 100 µM, the TGI [9] was over 100 µM and the TGI [10] was over 100 µM. The TGI [11] was over 100 µM, the TGI [12] was over 100 µM and the TGI [14] was over 100 µM. It also gave a TGI [47] of over 100 µM, a TGI [15] of over 100 µM and a TGI [16] of over 100 µM. The TGI [17] was over 100 µM, the TGI [20] was over 100 µM and the TGI [21] was over 100 µM. It also gave a TGI [22] of over 100 µM, a TGI [23] of over 100 µM and a TGI [57] of over 100 µM. The TGI [24] was over 100 µM, the TGI [49] was over 100 µM and the TGI [50] was over 100 µM. It also gave a TGI [26] of over 100 µM, a TGI [51] of over 100 µM and a TGI [29] of over 100 µM. It also gave a TGI [30] of over 100 µM, a TGI [31] of over 100 µM and a TGI [32] of over 100 µM. The TGI [33] was over 100 µM, the TGI [36] was over 100 µM and the TGI [37] was over 100 µM. It also gave a TGI [53] of over 100 µM, a TGI [39] of over 100 µM and a TGI [41] of over 100 µM. It also gave a TGI [55] of over 100 µM, a TGI [42] of over 100 µM and a TGI [43] of over 100 µM. It also gave a TGI [56] of over 100 µM, a TGI [44] of over 100 µM and a TGI [45] of over 100 µM.
